Experimental findings from patent publication US20090093420A1, “PROCESSES FOR THE PREPARATION OF AZITHROMYCIN” (WOCKHARDT LIMITED, priority 2006, published 2009) are described below.

The nature of data set [1]: stability study of anhydrous azithromycin, normal storage at 25±2° C. at 60±5% relative humidity. The data set is classed as physicochemical.
Data set [2] is described as follows: accelerated stability study of anhydrous azithromycin, storage at 40±2° C. at 75±5% relative humidity. The data set is classed as physicochemical.
[3] abbreviates: after 12 months of storage at 25±2° C. at 60±5% relative humidity.
The mark [4] stands for this setting: after 3 months of storage at 40±2° C. at 75±5% relative humidity.

Structures are written as SMILES.

As for `CCC1OC(=O)C(C)C(O[C@H]2C[C@@](C)(OC)[C@@H](O)C(C)O2)C(C)[C@@H](OC2OC(C)CC(N(C)C)[C@H]2O)[C@@](C)(O)C[C@@H](C)CN(C)[C@H](C)[C@@H](O)[C@]1(C)O` (stereo partly drawn) [anhydrous azithromycin, (2R,3S,4R,5R,5R,10R,11R,12S,13S,14R)-13-[(2,6-dideoxy-3-C-methyl-3-O-methyl-a-L-ribo-hexopyranosyl)oxy]-2-ethyl-3,4,10-trihydroxy-3,5,6,8,10,12,14-heptamethyl-11-[[3,4,6-trideoxy-3-(dimethylamino)-b-D-xylo-hexopyranosyl]oxy]-1-oxa-6-azacyclopentadecan-15-one], the “moisture content after storage” value in data set [1] (setting [3]) and in data set [2] (setting [4]) was at most 0.6% throughout. Besides, the figures for the “purity by HPLC after storage” value in data set [1] (setting [3]) and in data set [2] (setting [4]) were “more than 99%” and “more than 98%”, respectively. In addition, the “time for which the form is stable” value is “more than 18 months” in data set [1] (normal stability studies) and “more than 3 months” in data set [2] (accelerated stability studies). Moreover, the “change in the related substance content on storage” value in data set [1] (stored at 25±2° C. at 60±5% relative humidity) and in data set [2] (stored at 40±2° C. at 75±5% relative humidity) was “no change” in each case.
